Test results: patent publication US9751854B2 (Millennium Pharmaceuticals, Inc., priority 2014, dated 2017)

Molecular target: human VPS34 (Homo sapiens (Human), UniProt Q8NEB9)
Assay: Human VPS34 enzyme assay (Adapta TR-FRET ADP detection)
Type: biochemical
Conditions: IC50 range class
Description: Human VPS34 Enzyme Assay Method
100 nL compounds in DMSO are added to wells of a 384 well microtitre plate (Greiner 780076). At room temperature: 5 ul VPS34 reaction buffer (Invitrogen Assay Buffer Q (diluted 1 in 5 with nanopure water) plus 2 mM DTT and 2 mM MnCl2) containing ATP (20 uM, Promega) and 200 uM PI-PS substrate (Invitrogen PV5122) is added followed immediately by 5 ul VPS34 reaction buffer (as above) containing VPS34 (5 nM, Millennium Protein Sciences Group) and the mixture is incubated with shaking at room temperature for 1 hour. Then 5 ul VPS34 stop-detect mix (as per Invitrogen Adapta Assay kit (PV5009) instructions (contains kinase quench buffer, TR-FRET buffer, Adapta Eu anti-ADP antibody and Alexa Fluor 647 ADP tracer)) is added to quench the reaction. The plates are then incubated for 30 minutes at room temperature with shaking and then read on a BMG PheraStar Plus reader.
For the assay methods described above, test compound percent inhibition, at various concentrations, is calculated relative to control (DMSO and EDTA) treated samples. Compound concentration versus percent inhibition curves are fitted to generate IC50 values.

Chain of human VPS34 (Q8NEB9 whole entry): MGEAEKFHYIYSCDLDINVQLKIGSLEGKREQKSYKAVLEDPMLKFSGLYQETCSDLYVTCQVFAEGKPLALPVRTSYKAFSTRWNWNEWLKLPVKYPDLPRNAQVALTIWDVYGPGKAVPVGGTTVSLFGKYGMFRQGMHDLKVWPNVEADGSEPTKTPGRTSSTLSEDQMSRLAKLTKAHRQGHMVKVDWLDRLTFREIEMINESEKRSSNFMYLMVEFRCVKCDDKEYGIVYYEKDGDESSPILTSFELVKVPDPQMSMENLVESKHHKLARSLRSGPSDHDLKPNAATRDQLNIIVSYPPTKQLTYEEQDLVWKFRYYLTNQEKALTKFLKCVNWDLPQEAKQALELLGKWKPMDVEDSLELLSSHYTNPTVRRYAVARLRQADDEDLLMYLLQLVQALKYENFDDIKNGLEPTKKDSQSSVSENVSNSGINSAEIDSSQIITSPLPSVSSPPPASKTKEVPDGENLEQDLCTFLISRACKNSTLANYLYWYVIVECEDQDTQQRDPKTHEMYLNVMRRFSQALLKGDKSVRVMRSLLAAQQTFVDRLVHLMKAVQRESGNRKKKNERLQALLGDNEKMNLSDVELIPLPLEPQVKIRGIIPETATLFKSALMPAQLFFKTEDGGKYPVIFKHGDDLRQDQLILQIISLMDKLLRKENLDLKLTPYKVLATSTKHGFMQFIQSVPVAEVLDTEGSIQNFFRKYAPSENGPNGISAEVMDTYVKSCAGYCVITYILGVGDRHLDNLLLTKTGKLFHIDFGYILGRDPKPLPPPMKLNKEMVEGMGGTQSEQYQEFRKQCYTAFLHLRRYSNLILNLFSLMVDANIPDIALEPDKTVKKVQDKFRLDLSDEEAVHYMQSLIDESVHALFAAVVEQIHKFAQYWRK

CN(C(=O)c1cc(-c2ccnc(Nc3ccncn3)c2)cnc1N)C12CC(C1)C2 [Compound I-303, 6-amino-N-(bicyclo[1.1.1]pent-1-yl)-N-methyl-2′-(pyrimidin-4-ylamino)-3,4′-bipyridine-5-carboxamide] showed an IC50 of 10 to 50 nM.
With CC(=O)Nc1cc(-c2cnc(N)c(C(=O)Nc3cc(C)cnn3)c2)ccn1 [Compound I-121, 2′-acetamido-6-amino-N-(5-methylpyridazin-3-yl)-3,4′-bipyridine-5-carboxamide] the IC50 was 50 to 100 nM.
Work on CC(=O)Nc1cc(-c2cnc(Cl)c(NS(=O)(=O)c3ccccc3)c2C)ccn1 [Compound I-312, N-{6-chloro-4-methyl-5-[(phenylsulfonyl)amino]-3,4′-bipyridin-2′-yl}acetamide] yielded an IC50 of 10 to 50 nM.
CC(=O)Nc1cc(-c2cncc(S(=O)(=O)NC(C)(C)C)c2C)ccn1 [Compound I-462, N-(5-(N-(tert-butyl)sulfamoyl)-4-methyl-[3,4′-bipyridin]-2′-yl)acetamide] was tested, and the IC50 was > 100 nM.
With CC(=O)Nc1cc(-c2cnc(C#N)c(NS(=O)(=O)c3ccc(F)cc3F)c2)ccn1 [Compound I-411, N-(6-cyano-5-{[(2,4-difluorophenyl)sulfonyl]amino}-3,4′-bipyridin-2′-yl)acetamide] the IC50 was < 10 nM.
CCNC(=O)Nc1cc(-c2ccnc(Nc3ccnc(C)n3)c2)cnc1C [Compound I-367, 1-ethyl-3-{6-methyl-2′-[(2-methylpyrimidin-4-yl)amino]-3,4′-bipyridin-5-yl}urea] showed an IC50 of 50 to 100 nM.
For CC(=O)Nc1cc(-c2cnc(N)c(S(=O)(=O)NCC3CC3)c2C)ccn1 [Compound I-49, N-{6-amino-5-[(cyclopropylmethyl)sulfamoyl]-4-methyl-3,4′-bipyridin-2′-yl}acetamide], the IC50 was 50 to 100 nM.
With CC(=O)Nc1cc(-c2cnc(C)c(NS(=O)(=O)N3CCOCC3)c2)ccn1 [Compound I-447, N-{6-methyl-5-[(morpholin-4-ylsulfonyl)amino]-3,4′-bipyridin-2′-yl}acetamide] the IC50 was < 10 nM.
CN(C)S(=O)(=O)Nc1cc(-c2ccnc(Nc3ccnc(C4CC4)n3)c2)cn2nccc12 [Compound I-427, N′-(6-{2-[(2-cyclopropylpyrimidin-4-yl)amino]pyridin-4-yl}pyrazolo[1,5-a]pyridin-4-yl)-N,N-dimethylsulfuric diamide] was tested, and the IC50 was < 10 nM.
Compound COC(=O)Nc1cc(-c2cnc(C)c(NS(=O)(=O)N(C)C)c2)ccn1 [Compound I-241, methyl (5-[(dimethylsulfamoyl)amino]-6-methyl-3,4′-bipyridin-2′-yl]carbamate] has an IC50 of 10 to 50 nM.
Work on CC(=O)Nc1cc(-c2cnc(C)c(NS(=O)(=O)N(C)C)c2C)ccn1 [Compound I-260, N-{5-[(dimethylsulfamoyl)amino]-4,6-dimethyl-3,4′-bipyridin-2′-yl}acetamide] yielded an IC50 of 10 to 50 nM.
CC(=O)Nc1cc(-c2cnc(N(C)C)c(S(=O)(=O)Nc3ccc(F)cc3F)c2)ccn1 [Compound I-491, N-{5-[(2,4-difluorophenyl)sulfamoyl]-6-(dimethylamino)-3,4′-bipyridin-2′-yl}acetamide] gave an IC50 of 10 to 50 nM.
CC(=O)Nc1cc(-c2cnc(N)c(S(=O)(=O)Cc3cccnc3)c2)ccn1 [Compound I-205, N-{6-amino-5-[(pyridin-3-ylmethyl)sulfonyl]-3,4′-bipyridin-2′-yl}acetamide] gave an IC50 of 10 to 50 nM.
With Cc1ncc(-c2ccnc(NC(=O)C3CC3(F)F)c2)cc1NS(=O)(=O)N(C)C (centres unmarked) [Compound I-244, N-{5-[(dimethylsulfamoyl)amino]-6-methyl-3,4′-bipyridin-2′-yl}-2,2-difluorocyclopropanecarboxamide] the IC50 was 10 to 50 nM.
For CC(=O)Nc1cc(-c2cnc(C)c(NS(=O)(=O)N3CCCC3)c2)ccn1 [Compound I-274, N-{6-methyl-5-[(pyrrolidin-1-ylsulfonyl)amino]-3,4′-bipyridin-2′-yl}acetamide], the IC50 was 10 to 50 nM.
With COc1cc(C)ccc1S(=O)(=O)Nc1cc(-c2ccnc(NC(C)=O)c2)cnc1C [Compound I-142, N-(5-{[(2-methoxy-4-methylphenyl)sulfonyl]amino}-6-methyl-3,4′-bipyridin-2′-yl)acetamide] the IC50 was < 10 nM.
CCOC(=O)Nc1cc(-c2cnc(C)c(NS(=O)(=O)c3ccc(F)cc3F)c2)ccn1 [Compound I-389, ethyl (5-{[(2,4-difluorophenyl)sulfonyl]amino}-6-methyl-3,4′-bipyridin-2′-yl)carbamate] was tested, and the IC50 was < 10 nM.
Nc1cncc(-c2ccnc(N)c2)c1 [Compound I-231, 3,4′-bipyridine-2′,5-diamine] was tested, and the IC50 was > 100 nM.
In the case of CC(=O)Nc1cc(-c2cnc(N)c(N3CCCNS3(=O)=O)c2)ccn1 [Compound I-490, N-[6-amino-5-(1,1-dioxido-1,2,6-thiadiazinan-2-yl)-3,4′-bipyridin-2′-yl]acetamide], the IC50 is reported as < 10 nM.
With COC(=O)Nc1cc(-c2cnc(Cl)c(NS(=O)(=O)c3ccc(F)cc3F)c2C)ccn1 [Compound I-255, methyl (6-chloro-5-{[(2,4-difluorophenyl)sulfonyl]amino}-4-methyl-3,4′-bipyridin-2′-yl)carbamate] the IC50 was < 10 nM.
Cc1c(-c2ccnc(Nc3ccncn3)c2)cnc(Cl)c1NS(=O)(=O)c1ccc(F)cc1F [Compound I-282, N-[6-chloro-4-methyl-2′-(pyrimidin-4-ylamino)-3,4′-bipyridin-5-yl]-2,4-difluorobenzenesulfonamide] was tested, and the IC50 was < 10 nM.
In the case of CC(=O)Nc1cc(-c2cc(NS(=O)(=O)N(C)C)c3ccnn3c2)ccn1 [Compound I-476, N-(4-{4-[(dimethylsulfamoyl)amino]pyrazolo[1.5-a]pyridin-6-yl}pyridin-2-yl)acetamide], the IC50 is reported as 10 to 50 nM.
With CC(=O)Nc1cc(-c2cnc(Cl)c(C(=O)N3CCC3)c2)c(C)cn1 [Compound I-434, N-[5-(azetidin-1-ylcarbonyl)-6-chloro-5′-methyl-3,4′-bipyridin-2′-yl]acetamide] the IC50 was > 100 nM.
For CC(=O)Nc1cc(-c2cnc(C)c(NS(=O)(=O)c3ccc(F)cc3)c2)ccn1 [Compound I-185, N-(5-{[(4-fluorophenyl)sulfonyl]amino}-6-methyl-3,4′-bipyridin-2′-yl)acetamide], the IC50 was < 10 nM.
With COc1cccc(S(=O)(=O)Nc2cc(-c3ccnc(NC(C)=O)c3)cnc2C)c1 [Compound I-123, N-(5-{[(3-methoxyphenyl)sulfonyl]amino}-6-methyl-3,4′-bipyridin-2′-yl}acetamide] the IC50 was < 10 nM.
In the case of CC(=O)Nc1cc(-c2cnc(C)c(NS(=O)(=O)c3ccc(C(F)(F)F)cc3Cl)c2)ccn1 [Compound I-196, N-[5-({[2-chloro-4-(trifluoromethyl)phenyl]sulfonyl}amino)-6-methyl-3,4′-bipyridin-2′-yl]acetamide], the IC50 is reported as < 10 nM.
Compound CC(=O)Nc1cc(-c2cnc(N)c(S(C)(=O)=O)c2)ccn1 [Compound I-95, N-[6-amino-5-(methylsulfonyl)-3,4′-bipyridin-2′-yl]acetamide] has an IC50 of 10 to 50 nM.
Cc1nccc(Nc2cc(-c3cnc(Cl)c(N)c3C)ccn2)n1 [Compound I-226, 6-chloro-4-methyl-N-2′-(2-methylpyrimidin-4-yl)-3,4′-bipyridine-2′,5-diamine] was tested, and the IC50 was 10 to 50 nM.
Cc1nccc(Nc2cc(-c3cncc(OC4CCc5c(F)cccc54)c3)ccn2)n1 (centres unmarked) [Compound I-440, 5-[(4-fluoro-2,3-dihydro-1H-inden-1-yl)oxy]-N-(2-methylpyrimidin-4-yl)-3,4′-bipyridin-2′-amine] was tested, and the IC50 was > 100 nM.
In the case of COC(=O)Nc1cc(-c2cnc3ccn(CC4CC4)c3c2)ccn1 [Compound I-42, Methyl {4-[1-(cyclopropylmethyl)-1H-pyrrolo[3,2-b]pyridin-6-yl]pyridin-2-yl}carbamate], the IC50 is reported as 10 to 50 nM.
In the case of O=C(Nc1cc(-c2cnc3[nH]ncc3c2)ccn1)C1CC1 [Compound I-117, N-[4-(1H-pyrazolo[3,4-b]pyridin-5-yl)pyridin-2-yl]cyclopropanecarboxamide], the IC50 is reported as 10 to 50 nM.
Compound COC(=O)Nc1cc(-c2cncc(S(=O)(=O)N3CCOCC3)c2)ccn1 [Compound I-332, methyl [5-(morpholin-4-ylsulfonyl)-3,4′-bipyridin-2′-yl]carbamate] has an IC50 of 10 to 50 nM.
For CC(=O)Nc1cc(-c2cnc(N)c(N3CCCC3=O)c2)ccn1 [Compound I-337, N-[6-amino-5-(2-oxopyrrolidin-1-yl)-3,4′-bipyridin-2′-yl]acetamide], the IC50 was > 100 nM.
CC(=O)Nc1cc(-c2cnc(C)c(C(=O)Nc3ccc(F)cc3F)c2)ccn1 [Compound I-431, 2′-acetamido-N-(2,4-difluorophenyl)-6-methyl-3,4′-bipyridine-5-carboxamide] was tested, and the IC50 was > 100 nM.
With CC(=O)Nc1cc(-c2cnc(Cl)c(NS(=O)(=O)c3cc(Cl)ccc3Cl)c2C)ccn1 [Compound I-401, N-(6-chloro-5-{[(2,5-dichlorophenyl)sulfonyl]amino}-4-methyl-3,4′-bipyridin-2′-yl)acetamide] the IC50 was < 10 nM.
In the case of CC(=O)Nc1cc(-c2cncc(N(C)S(C)(=O)=O)c2)ccn1 [Compound I-20, N-{5-[methyl(methylsulfonyl)amino]-3,4′-bipyridin-2′-yl}acetamide], the IC50 is reported as 50 to 100 nM.
Cc1c(-c2ccnc(Nc3ccnc(C4CC4)n3)c2)cnc(Cl)c1C(=O)O [Compound I-369, 6-chloro-2′-((2-cyclopropylpyrimidin-4-yl)amino)-4-methyl-[3,4′-bipyridine]-5-carboxylic acid] gave an IC50 of 10 to 50 nM.
Compound CNC1CN(c2cc(-c3ccnc(NC(C)=O)c3)cnc2C)S(=O)(=O)C1 (centres unmarked) [Compound I-325, N-{6-methyl-5-[4-(methylamino)-1,1-dioxidoisothiazolidin-2-yl]-3,4′-bipyridin-2′-yl}acetamide] has an IC50 of 10 to 50 nM.
Cc1c(-c2ccnc(Nc3ccncn3)c2)cnc(Cl)c1NS(=O)(=O)c1ccccc1 [Compound I-309, N-[6-chloro-4-methyl-2′-(pyrimidin-4-ylamino)-3,4′-bipyridin-5-yl]benzenesulfonamide] was tested, and the IC50 was < 10 nM.
CCOC(=O)Nc1cc(-c2cnc(C)c(NS(=O)(=O)N(C)C)c2)ccn1 [Compound I-364, ethyl {5-[(dimethylsulfamoyl)amino]-6-methyl-3,4′-bipyridin-2′-yl}carbamate] was tested, and the IC50 was 10 to 50 nM.
With Cc1ncc(-c2ccnc(Nc3ccnc(C4CC4)n3)c2)cc1C(=O)N1CCC1 [Compound I-246, azetidin-1-yl{2′-[(2-cyclopropylpyrimidin-4-yl)amino]-6-methyl-3,4′-bipyridin-5-yl}methanone] the IC50 was 10 to 50 nM.
